Experimental data taken from PubChem BioAssay AID330 (DTP/NCI, 2004).
Where “and” joins values, the source holds several entries; their conditions need not be identical. Identical values can stand only once. Inconclusive results and toxic doses are left out. The calls were made as follows: active = survival T/C of 150% or more; inactive = T/C below 125% in these data.

System: P388 leukemia ip, CD2F1 mice, survival T/C
Experiment: NCI In Vivo Anticancer Drug Screen. Data for tumor model P388 Leukemia (intraperitoneal) in CD2F1 (CDF1) mice
Conditions: endpoint: median survival time, higher = longer survival
Method in brief: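 Mice carrying the transplanted tumor received test compound or vehicle. Survival was recorded in each group, and the value is the treated-group measurement divided by that of the vehicle-treated control group.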

[1] = dose: 60.0 mg/kg/injection, schedule: Q01DX005 (ip), vehicle: Klucel (hydroxypropylcellulose) (HPC)
[2] = dose: 120.0 mg/kg/injection, schedule: Q01DX005 (ip), vehicle: Klucel (hydroxypropylcellulose) (HPC)
[3] = dose: 240.0 mg/kg/injection, schedule: Q01DX005 (ip), vehicle: Klucel (hydroxypropylcellulose) (HPC)
[4] = dose: 60.0 mg/kg/injection, schedule: Q01DX005 (ip), vehicle: saline
[5] = dose: 120.0 mg/kg/injection, schedule: Q01DX005 (ip), vehicle: saline
[6] = dose: 240.0 mg/kg/injection, schedule: Q01DX005 (ip), vehicle: saline
[7] = dose: 12.5 mg/kg/injection, schedule: Q01DX005 (ip), vehicle: Klucel (hydroxypropylcellulose) (HPC)
[8] = dose: 50.0 mg/kg/injection, schedule: Q01DX005 (ip), vehicle: Klucel (hydroxypropylcellulose) (HPC)
[9] = dose: 100.0 mg/kg/injection, schedule: Q01DX005 (ip), vehicle: Klucel (hydroxypropylcellulose) (HPC)
[10] = dose: 200.0 mg/kg/injection, schedule: Q01DX005 (ip), vehicle: Klucel (hydroxypropylcellulose) (HPC)
[11] = dose: 100.0 mg/kg/injection, schedule: Q01DX001 (ip), vehicle: saline with Tween-80
[12] = dose: 200.0 mg/kg/injection, schedule: Q01DX001 (ip), vehicle: saline with Tween-80
[13] = dose: 400.0 mg/kg/injection, schedule: Q01DX001 (ip), vehicle: saline with Tween-80
[14] = dose: 50.0 mg/kg/injection, schedule: Q01DX005 (ip), vehicle: saline with Tween-80
[15] = dose: 100.0 mg/kg/injection, schedule: Q01DX005 (ip), vehicle: saline with Tween-80
[16] = dose: 200.0 mg/kg/injection, schedule: Q01DX005 (ip), vehicle: saline with Tween-80
[17] = dose: 50.0 mg/kg/injection, schedule: Q01DX005 (ip), vehicle: saline
[18] = dose: 100.0 mg/kg/injection, schedule: Q01DX005 (ip), vehicle: saline

Measured: T/C

Nc1cc(S(=O)(=O)O)cc2cc(S(=O)(=O)O)cc(O)c12
inactive: [1] 96 % of control | [2] 98 % of control | [3] 95 % of control

COC(=O)C1(CC(=O)C(C)(C)C)NC(=S)NC(=O)C1C#N (stereo not drawn)
inactive: [4] 107 % of control | [5] 101 % of control | [6] 97 % of control

NC(=O)Oc1cccc(OC(N)=O)c1
inactive: dose: 25.0 mg/kg/injection, schedule: Q01DX009 (ip), vehicle: other 103 % of control | dose: 50.0 mg/kg/injection, schedule: Q01DX009 (ip), vehicle: other 111 % of control | dose: 50.0 mg/kg/injection, schedule: Q04DX003 (ip), vehicle: other 95 % of control | dose: 100.0 mg/kg/injection, schedule: Q01DX009 (ip), vehicle: other 113 % of control | dose: 200.0 mg/kg/injection, schedule: Q01DX009 (ip), vehicle: other 113 % of control | dose: 200.0 mg/kg/injection, schedule: Q04DX003 (ip), vehicle: other 98 % of control

CN1CCC(=NO)CC1
inactive: [4] 95 % of control | [5] 89 % of control | [6] 94 % of control

Cc1ccc(C(=O)C(C#N)=Nc2ccc(N(C)C)cc2)cc1
inactive: [7] 92 % of control | [8] 87 % of control and 91 % of control | [9] 92 % of control | [10] 99 % of control

COc1ccc(/C=N/Nc2nnc3c4ccccc4n(C)c3n2)cc1
inactive: [11] 89 % of control | [12] 91 % of control | [13] 107 % of control

O=C(O)c1cccc(C(=O)O)c1S(=O)Cc1ccccc1 (stereo not drawn)
inactive: [14] 102 % of control | [15] 93 % of control | [16] 105 % of control

CNC(=O)Oc1[nH]c(=O)ncc1I
inactive: dose: 50.0 mg/kg/injection, schedule: Q04DX002 (ip), vehicle: saline with Tween-80 100 % of control | dose: 100.0 mg/kg/injection, schedule: Q04DX002 (ip), vehicle: saline with Tween-80 108 % of control and 109 % of control and 110 % of control | dose: 200.0 mg/kg/injection, schedule: Q04DX002 (ip), vehicle: saline with Tween-80 105 % of control and 116 % of control

CC(=O)OC1CC(C)OC(OC2CCC3(C=O)C4C(O)C(=O)[C@]5(C)C(c6ccc(=O)oc6)CC[C@]5(O)C4CC[C@]3(O)C2)C1OC(C)=O (stereo partly drawn)
inactive: dose: 0.18 mg/kg/injection, schedule: Q01DX009 (ip), vehicle: distilled water + Tween-80 + alcohol 90 % of control | dose: 0.35 mg/kg/injection, schedule: Q01DX009 (ip), vehicle: distilled water + Tween-80 + alcohol 107 % of control | dose: 0.71 mg/kg/injection, schedule: Q01DX009 (ip), vehicle: distilled water + Tween-80 + alcohol 100 % of control | dose: 1.42 mg/kg/injection, schedule: Q01DX009 (ip), vehicle: distilled water + Tween-80 + alcohol 109 % of control | dose: 2.84 mg/kg/injection, schedule: Q01DX009 (ip), vehicle: distilled water + Tween-80 + alcohol 100 % of control

CCOC(=O)c1cnc(NCCCNc2ncc(C(=O)OCC)c(=O)[nH]2)[nH]c1=O
inactive: dose: 6.25 mg/kg/injection, schedule: Q01DX005 (ip), vehicle: Klucel (hydroxypropylcellulose) (HPC) 92 % of control | [7] 101 % of control | dose: 25.0 mg/kg/injection, schedule: Q01DX005 (ip), vehicle: Klucel (hydroxypropylcellulose) (HPC) 104 % of control | [8] 105 % of control | [9] 106 % of control | [10] 88 % of control

C=C1c2c(O)c(C)c(O)c(C(C)=O)c2OC12CC(=O)C(C(=O)O)=C2C (stereo not drawn)
inactive: dose: 12.5 mg/kg/injection, schedule: Q01DX009 (ip), vehicle: gum acacia 105 % of control and 112 % of control | dose: 25.0 mg/kg/injection, schedule: Q01DX009 (ip), vehicle: gum acacia 108 % of control and 109 % of control | dose: 50.0 mg/kg/injection, schedule: Q01DX009 (ip), vehicle: gum acacia 108 % of control | dose: 100.0 mg/kg/injection, schedule: Q01DX009 (ip), vehicle: gum acacia 108 % of control and 110 % of control | dose: 200.0 mg/kg/injection, schedule: Q01DX009 (ip), vehicle: gum acacia 108 % of control and 110 % of control

Cc1ccc(C2OC3=C(Nc4ccc([N+](=O)[O-])cc4N3)C2=O)cc1 (stereo not drawn)
inactive: [1] 90 % of control | [2] 93 % of control | [3] 96 % of control

O=C(CCn1c(CN2CCN(C/C=C/c3ccccc3)CC2)nc2ccccc21)c1ccccc1
inactive: dose: 50.0 mg/kg/injection, schedule: Q01DX009 (ip), vehicle: Klucel (hydroxypropylcellulose) (HPC) 104 % of control | dose: 100.0 mg/kg/injection, schedule: Q01DX009 (ip), vehicle: Klucel (hydroxypropylcellulose) (HPC) 100 % of control | dose: 200.0 mg/kg/injection, schedule: Q01DX009 (ip), vehicle: Klucel (hydroxypropylcellulose) (HPC) 111 % of control

NCCCO[C@H]1CO[C@H]2[C@@H]1OC[C@H]2OCCCN
inactive: [17] 100 % of control | [18] 102 % of control

O=C(O)C1=CC2C=C(Cl)C=CC2OC1=O (stereo not drawn)
inactive: dose: 60.0 mg/kg/injection, schedule: Q01DX005 (ip), vehicle: saline with Tween-80 100 % of control | dose: 120.0 mg/kg/injection, schedule: Q01DX005 (ip), vehicle: saline with Tween-80 100 % of control

Cc1nc(-c2ccccc2)nc2c1nc(Cc1ccccc1)n2Nc1ccccc1
inactive: dose: 100.0 mg/kg/injection, schedule: Q01DX001 (ip), vehicle: Klucel (hydroxypropylcellulose) (HPC) 87 % of control | dose: 200.0 mg/kg/injection, schedule: Q01DX001 (ip), vehicle: Klucel (hydroxypropylcellulose) (HPC) 91 % of control | dose: 400.0 mg/kg/injection, schedule: Q01DX001 (ip), vehicle: Klucel (hydroxypropylcellulose) (HPC) 87 % of control

CCC1CCCN(CCc2c(C3(CO)CCC(CO)c4c(CCN5CCCC(CC)C5)c5ccccc5n43)[nH]c3ccccc23)C1 (stereo not drawn)
inactive: dose: 0.7 mg/kg/injection, schedule: Q01DX009 (ip), vehicle: saline with Tween-80 106 % of control | dose: 1.4 mg/kg/injection, schedule: Q01DX009 (ip), vehicle: saline with Tween-80 102 % of control | dose: 2.8 mg/kg/injection, schedule: Q01DX009 (ip), vehicle: saline with Tween-80 102 % of control

COc1cccc(N=Nc2c(C)nn(C(=S)S)c2C)c1
inactive: [14] 101 % of control | [15] 100 % of control | [16] 94 % of control

CC(=O)OC1CCC2CC3(CCC1(C)C2=O)OCCO3 (stereo not drawn)
inactive: dose: 100.0 mg/kg/injection, schedule: Q04DX003 (ip), vehicle: saline + Tween-80 + alcohol 100 % of control | dose: 200.0 mg/kg/injection, schedule: Q04DX003 (ip), vehicle: saline + Tween-80 + alcohol 99 % of control | dose: 400.0 mg/kg/injection, schedule: Q04DX003 (ip), vehicle: saline + Tween-80 + alcohol 103 % of control

C/C(=N\N)c1cnc(N)nc1C
inactive: [4] 101 % of control | [5] 107 % of control | [6] 100 % of control

CN1C(c2ccccc2)C2CCCC(C1c1ccccc1)C21NC(=O)NC1=O (stereo not drawn)
inactive: [11] 97 % of control | [12] 94 % of control | [13] 94 % of control

CN(C)CCC(=O)c1ccc(C(=O)CCN(C)C)cc1
inactive: dose: 25.0 mg/kg/injection, schedule: Q01DX005 (ip), vehicle: saline 108 % of control | [17] 107 % of control | [18] 107 % of control

CN1C(C)(C)CC(O)(C(=O)O)CC1(C)C
inactive: [17] 94 % of control | [18] 91 % of control | dose: 200.0 mg/kg/injection, schedule: Q01DX005 (ip), vehicle: saline 87 % of control
